{
  "source": "patent US5030449A",
  "about": "“Synthetic vaccine against AIDS virus” (The United States of America as represented by the …, priority 1988, dated 1991)",
  "system": "HIV envelope-immune murine T cells (lymph node cells of gp160-immunized mice)",
  "assay": "Lymph node T-cell proliferation assay ([3H]thymidine incorporation, stimulation index)",
  "assay_type": "cell-based, mouse",
  "conditions": "for S.I. (stimulation index, experimental cpm/control cpm): peptide 2 μM",
  "description": "B10.BR/SgSn (H-2^k) and B10.D2/nSn (H-2^d) mice were obtained from the Jackson Laboratories (Bar Harbor, Me.). B10.S(9R)/Sg (H-2^t4) and B10.A(5R)/SgSn (H-2^i5) mice were bred at the NIH breeding colony from breeding pairs obtained from D. J. Stimpfling (Great Falls, Mont.) and from Jackson Laboratories. Mice from the strain B10.S(9R) and B10.A(5R) were chosen because both I-A and I-E molecules of the H-2^s and H-2^b haplotypes are expressed in these recombinant strains, whereas I-E is not expressed in nonrecombinant H-2^b and H-2^s mice.\nMice were immunized s.c. with 10-30 ug of recombinant gp160 1:1 in complete Freund's adjuvant (CFA) at the base of the tail. (The dose was determined according to the purity of the gp160 preparation.) Eight to ten days later, periaortic and inguinal lymph nodes were removed and prepared in a single-cell suspension in complete T-cell medium in accordance with the method of Berkower et al, 1984, J. Immunol., 132:1370. Lymph node cells at 4×10^5 cells per well were added to each well of flat-bottomed 96-well microtiter plates (Costar, Cambridge, Mass.). The 44 peptides were added to the wells to make a final volume of 0.2 ml of medium, and each peptide was tested in triplicate. On the fourth day of culture, 1 uCi of [^3 H]thymidine (6.7 Ci/mmol; New England Nuclear, Boston, Mass.) was added to each well. Eighteen hours later, […] incorporation into DNA, as a measure of proliferation, was determined using liquid scintillation counting. The stimulation index represents a ratio of experimental counts over background counts without antigen.\nMice of the H-2^k, H-2^d, H-^i5, and H-2^t4 haplotypes were immunized s.c. in the tail with recombinant gp160 in CFA at a dose of 20-30 ug per mouse. Eight to ten days later the mice were sacrificed, the periaortic and inguinal lymph nodes were isolated, and proliferation of lymph node cells in the presence or absence of antigen was determined as described herein supra.",
  "data": [
    {"sequence": "WDQSLKPCVKLTPLCV [HP-8, residues 119-134 of HIV envelope]", "values": [
      {"measurement": "S.I. (stimulation index, experimental cpm/control cpm)", "setting": "B10.A(5R) H-2^i5 mice", "value": 1.51},
      {"measurement": "S.I. (stimulation index, experimental cpm/control cpm)", "setting": "B10.BR H-2^k mice", "value": 2.24},
      {"measurement": "S.I. (stimulation index, experimental cpm/control cpm)", "setting": "B10.D2 H-2^d mice", "value": 1.68},
      {"measurement": "S.I. (stimulation index, experimental cpm/control cpm)", "setting": "B10.S(9R) H-2^t4 mice", "value": 1.23},
      {"measurement": "T-cell proliferative response (in words)", "setting": "H-2^k mice, initial screening", "value": "diminishing response"}
    ]}
  ]
}
